Reference: PubChem BioAssay (NCI)
“And” between values parts separate entries of the source, which are not always exact repeats. Identical values can stand only once.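 Cells were grown in 96-well plates and exposed to each compound for 48 hours at five concentrations; endpoints were interpolated linearly between bracketing concentrations, or set to the highest concentration if not reached. The concentration for 50% growth inhibition is given as GI50. TGI marks complete inhibition of growth.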

Key:
Assay in all cases: inhibition of tumour cell growth, NCI panel, 48 h
A498 renal = test system: A498 renal
HCT-15 colon = test system: HCT-15 colon
K-562 leukemia = test system: K-562 leukemia
OVCAR-3 ovarian = test system: OVCAR-3 ovarian
OVCAR-4 ovarian = test system: OVCAR-4 ovarian
SK-MEL-2 melanoma = test system: SK-MEL-2 melanoma
SK-MEL-5 melanoma = test system: SK-MEL-5 melanoma
SW-620 colon = test system: SW-620 colon
U251 CNS = test system: U251 CNS
MDA-MB-435 = test system: MDA-MB-435

Row | SMILES | TGI (A498 renal) | TGI (HCT-15 colon) | TGI (K-562 leukemia) | TGI (OVCAR-3 ovarian) | TGI (OVCAR-4 ovarian) | TGI (SK-MEL-2 melanoma) | TGI (SK-MEL-5 melanoma) | TGI (SW-620 colon) | TGI (U251 CNS) | GI50 (A498 renal) | GI50 (HCT-15 colon) | GI50 (K-562 leukemia) | GI50 (OVCAR-3 ovarian) | GI50 (OVCAR-4 ovarian) | GI50 (SK-MEL-2 melanoma) | GI50 (SK-MEL-5 melanoma) | GI50 (SW-620 colon) | GI50 (U251 CNS) | TGI (MDA-MB-435) | GI50 (MDA-MB-435)
1 | O=C(c1ccccc1)c1c(-c2ccccc2)sc2nc3ccccc3nc12 | > 100 µM | > 100 µM | > 100 µM | > 100 µM | > 100 µM | > 100 µM | > 100 µM | > 100 µM | > 100 µM | – | – | – | – | – | – | – | – | – | – | –
2 | COc1ccc(NC(=O)CC/C(CC(=O)C(C)(C)C)=N\NC(=O)C(=O)NN)cc1 | > 100 µM | > 100 µM | > 100 µM | > 100 µM | > 100 µM | > 100 µM | > 100 µM | > 100 µM | > 100 µM | – | – | – | – | – | – | – | – | – | – | –
3 | COc1ccc(-c2oc(=O)ccc2-c2cc(OC)c(OC)c(OC)c2)cc1O | 28.1 µM | > 100 µM | > 100 µM | 3.55 µM | > 100 µM | > 38.7 µM | 12.7 µM | > 47.6 µM | > 100 µM | 2.57 µM | 0.769 µM | 0.439 µM | 0.463 µM | 6.65 µM | 2.31 µM | 0.514 µM | 0.612 µM | 1.1 µM | – | –
4 | CC(C)(C)CC(C)(C)c1cc2c(O)c(c1)Cc1cc(C(C)(C)CC(C)(C)C)cc(c1O)Cc1cc(C(C)(C)CC(C)(C)C)cc(c1O)Cc1cc(C(C)(C)CC(C)(C)C)cc(c1O)Cc1cc(C(C)(C)CC(C)(C)C)cc(c1O)C2 | – | > 100 µM | > 100 µM | > 100 µM | > 100 µM | > 100 µM | > 100 µM | > 100 µM | > 100 µM | – | – | – | – | – | – | – | – | – | – | –
5 | COc1ccccc1C(O)(c1ccccc1)C(O)(c1ccccc1)c1ccccc1OC (centres undefined) | > 100 µM | > 100 µM | > 100 µM | > 100 µM | > 100 µM | > 100 µM | > 100 µM | > 100 µM | > 100 µM | – | – | – | – | – | – | – | – | – | – | –
6 | O=C1Cc2c([nH]c3ccccc23)-c2ccccc2N1 | > 100 µM | > 100 µM | > 100 µM | 68.2 µM | > 100 µM | > 100 µM | > 100 µM | 66.7 µM | > 100 µM | – | – | – | – | – | – | – | – | – | – | –
7 | COc1ccc(-c2cc(=O)c3ccccc3o2)cc1N | > 100 µM | > 100 µM | > 100 µM | > 100 µM | > 100 µM | > 100 µM | > 100 µM | > 100 µM | > 100 µM | – | – | – | – | – | – | – | – | – | – | –
8 | CN(C)CCNC(=O)c1cccc2nc3cc(Cl)ccc3nc12 | 4.65 µM | 11.5 µM | 4.14 µM | 6.15 µM | 8.54 µM | 7.57 µM | > 33.6 µM | > 23.7 µM | 12.4 µM | – | – | – | – | – | – | – | – | – | – | –
9 | C=C(C#N)C1OCC2OC(C)(C)OC21 (centres undefined) | 51.2 µM | 35.3 µM | 72 µM | 46 µM | 33.6 µM | 77.2 µM | 34 µM | 39.6 µM | > 100 µM | – | – | – | – | – | – | – | – | – | – | –
10 | CC(=Nc1ccccc1)C1=C(O)C(Cc2ccc(O)cc2)NC1=O (centres undefined) | – | > 46.8 µM | > 50.7 µM | 0.072 µM | > 100 µM | > 100 µM | 2.37 µM | > 100 µM | – | 0.255 µM | 0.0585 µM | 0.044 µM | 0.0258 µM | 0.385 µM | 0.206 µM | 0.0512 µM | 0.0485 µM | 0.0609 µM | – | –
11 | CC(=O)OC1CCn2nnc(CO)c21 (centres undefined) | – | > 100 µM | > 100 µM | > 100 µM | > 100 µM | > 100 µM | > 100 µM | > 100 µM | > 100 µM | – | – | – | – | – | – | – | – | – | – | –
12 | COc1cc(Nc2nc3ccccc3nc2NS(=O)(=O)c2ccc(NC(=O)c3ccc(C)c(OC)c3)cc2)cc(OC)c1 | – | > 100 µM | > 100 µM and 46.4 µM and > 10 µM | – | > 100 µM | 22.6 µM and 32.8 µM and 3.83 µM | 38.4 µM and 28.7 µM and > 6.54 µM | > 100 µM | 34.7 µM and 33.5 µM and > 10 µM | – | 4.97 µM and 19.9 µM and 2 µM | 5.34 µM and 18.7 µM and > 5.29 µM | – | – | – | 4.19 µM and 11.4 µM and 1.71 µM | – | 3.71 µM and 12 µM and 2.27 µM | > 100 µM and 86.2 µM and > 5.19 µM | –
13 | CN1CC(=O)N(C)c2ncn(Cc3ccccc3)c2C1=O | > 100 µM | > 100 µM | > 100 µM | > 100 µM | > 100 µM | – | > 100 µM | > 100 µM | > 100 µM | – | – | – | – | – | – | – | – | – | – | –
14 | c1cc(N2CCCN(c3ccc(C4=NCCCN4)cc3)CC2)ccc1C1=NCCCN1 | > 100 µM | > 100 µM | > 100 µM | > 100 µM | > 100 µM | – | > 100 µM | > 100 µM | > 100 µM | 2.72 µM | > 100 µM | 88 µM | > 100 µM | > 100 µM | – | 46.6 µM | > 100 µM | 65.9 µM | > 100 µM | > 100 µM
15 | NC[C@H]1Nc2ccccc2[C@@H](O)C1O (some centres undefined) | – | > 100 µM | > 100 µM | > 100 µM | > 100 µM | > 100 µM | > 100 µM | > 100 µM | > 100 µM | – | – | – | – | – | – | – | – | – | > 100 µM | –
16 | COC(=O)CC[C@]1(C)O[C@H]2[C@H]([C@@H](C)CCCC(C)=O)OC(=O)[C@@H]2C[C@H]1O | – | > 100 µM | > 100 µM | > 100 µM | > 100 µM | > 100 µM | > 100 µM | > 100 µM | > 100 µM | – | > 100 µM | > 100 µM | 31.5 µM | > 100 µM | > 100 µM | > 100 µM | > 100 µM | > 100 µM | > 100 µM | 98.3 µM
17 | CC(C)[O-].CC(C)[O-].O=C1C=C([O-])C(=O)c2ccccc21.O=C1C=C([O-])C(=O)c2ccccc21.[Ti+4] | > 100 µM | > 100 µM | > 100 µM | > 100 µM | > 100 µM | > 71.2 µM | > 66.8 µM | > 100 µM | > 100 µM | > 100 µM | > 73.4 µM | > 89.4 µM | > 70.5 µM | > 100 µM | 17.2 µM | 6.32 µM | 44.2 µM | > 68.8 µM | – | –
18 | CC1=C(C(=O)Nc2ccc(Cl)c(Cl)c2)C(c2cccc(Cl)c2)NC(=O)N1 (centres undefined) | – | 19.2 µM | 48.4 µM | 9.13 µM | > 50 µM | 19.3 µM | 17.4 µM | > 29.4 µM | 17 µM | – | 9.06 µM | 13.6 µM | 0.838 µM | 14.1 µM | 9.95 µM | 8.93 µM | 12.6 µM | 8.32 µM | 1.92 µM | 0.464 µM
